In US7851510B2, “Gossypol derivatives, production method thereof and uses of same” (Centre National de la Recherche Scientifique (C.N.R.S.), priority 2004, dated 2010):
Like-named read-outs stand apart in the source and are kept apart here.

What was measured:
Assay in all cases: Protein kinase activity in the presence of compound
Format in all cases: biochemical
AMPK = details: 10 μM compound; percentage of the activity measured in the absence of inhibitors
Experimental: (§1) The action of the compound of formula (14) was tested on a selection of 29 different protein kinases. The activity of these enzymes was measured in the presence of 10 μM of compound, according to the general methodology described by Bain et al. (2003) Biochem. J. 371:199-204 and Davies et al. (2000) Biochem. J. 351:95-105.
(§2) Residual enzyme activity of protein kinases in the presence of inhibitor compounds at the concentration given (expressed as a percentage of the activity measured in the absence of inhibitors). The results obtained for gossypol and gossypolone are given by way of comparison.

CDK2/cyclin A = CDK2/cyclin A (Homo sapiens, UniProt P24941); details: read-out: Residual activity CDK2/cyclin A
Experimental: as §1, §2

CK1 = details: 10 μM compound; percentage of the activity measured in the absence of inhibitors
Experimental: as §1, §2

CK2 = CK2 (Homo sapiens, UniProt P68400); details: read-out: Residual activity CK2
CK2, sequence (P68400 whole entry): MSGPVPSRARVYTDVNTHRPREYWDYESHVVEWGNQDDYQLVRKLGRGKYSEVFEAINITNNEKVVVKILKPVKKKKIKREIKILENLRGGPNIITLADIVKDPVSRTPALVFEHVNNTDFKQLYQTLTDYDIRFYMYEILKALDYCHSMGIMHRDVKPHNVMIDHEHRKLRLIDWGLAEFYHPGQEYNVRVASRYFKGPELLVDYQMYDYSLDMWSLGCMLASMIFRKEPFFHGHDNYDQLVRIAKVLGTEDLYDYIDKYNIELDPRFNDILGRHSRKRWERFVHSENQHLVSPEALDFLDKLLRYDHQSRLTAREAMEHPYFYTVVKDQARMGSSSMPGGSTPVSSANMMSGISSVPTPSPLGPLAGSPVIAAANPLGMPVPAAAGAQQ
Experimental: as §1, §2

GSK3b = GSK3b (Homo sapiens, UniProt P49841); details: read-out: Residual activity GSK3b
GSK3b, sequence (P49841 whole entry, species assumed): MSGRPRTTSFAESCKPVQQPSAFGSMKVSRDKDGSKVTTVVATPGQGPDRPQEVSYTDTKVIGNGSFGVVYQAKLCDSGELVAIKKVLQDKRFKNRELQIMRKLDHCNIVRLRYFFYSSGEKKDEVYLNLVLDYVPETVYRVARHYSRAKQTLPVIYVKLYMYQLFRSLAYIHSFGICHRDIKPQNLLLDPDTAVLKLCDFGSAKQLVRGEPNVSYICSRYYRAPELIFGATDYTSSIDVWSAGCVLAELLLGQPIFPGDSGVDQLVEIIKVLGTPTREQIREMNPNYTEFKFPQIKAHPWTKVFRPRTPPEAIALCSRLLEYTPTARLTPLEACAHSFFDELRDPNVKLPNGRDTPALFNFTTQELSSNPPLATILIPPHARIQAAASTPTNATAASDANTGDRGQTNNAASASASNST
Experimental: as §1, §2

JNK/SAPK1c = JNK/SAPK1c (Homo sapiens, UniProt P45983); details: read-out: Residual activity JNK/SAPK1c
JNK/SAPK1c, sequence (P45983 whole entry): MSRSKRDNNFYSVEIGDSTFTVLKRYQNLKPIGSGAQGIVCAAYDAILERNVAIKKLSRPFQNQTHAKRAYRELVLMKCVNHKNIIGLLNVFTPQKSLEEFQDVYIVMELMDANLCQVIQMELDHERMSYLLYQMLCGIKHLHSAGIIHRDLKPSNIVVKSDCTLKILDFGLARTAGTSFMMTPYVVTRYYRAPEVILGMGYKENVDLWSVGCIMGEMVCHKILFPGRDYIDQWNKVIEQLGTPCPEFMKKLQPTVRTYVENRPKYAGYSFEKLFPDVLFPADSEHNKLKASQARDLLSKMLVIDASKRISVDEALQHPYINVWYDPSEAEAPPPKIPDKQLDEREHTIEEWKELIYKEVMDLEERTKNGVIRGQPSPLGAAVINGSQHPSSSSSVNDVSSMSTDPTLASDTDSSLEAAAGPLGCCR
Experimental: as §1, §2

MKK1 = MKK1 (Homo sapiens, UniProt Q02750); details: read-out: Residual activity MKK1
MKK1, sequence (Q02750 whole entry, species assumed): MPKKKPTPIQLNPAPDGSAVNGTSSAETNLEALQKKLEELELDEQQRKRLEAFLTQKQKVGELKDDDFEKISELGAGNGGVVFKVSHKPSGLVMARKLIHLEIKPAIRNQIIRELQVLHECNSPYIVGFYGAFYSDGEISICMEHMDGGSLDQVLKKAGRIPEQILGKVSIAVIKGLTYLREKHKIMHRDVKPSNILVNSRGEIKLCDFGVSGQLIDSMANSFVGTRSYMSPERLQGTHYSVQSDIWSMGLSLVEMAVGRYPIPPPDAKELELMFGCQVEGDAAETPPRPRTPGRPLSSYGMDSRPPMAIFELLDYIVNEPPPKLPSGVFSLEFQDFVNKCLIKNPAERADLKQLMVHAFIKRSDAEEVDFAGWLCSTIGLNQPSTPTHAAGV
Experimental: as §1, §2

PDK1 = biological target: T1, PDK1 (Homo sapiens, UniProt O15530); details: read-out: Residual activity PDK1
T1 sequence (O15530 1-556): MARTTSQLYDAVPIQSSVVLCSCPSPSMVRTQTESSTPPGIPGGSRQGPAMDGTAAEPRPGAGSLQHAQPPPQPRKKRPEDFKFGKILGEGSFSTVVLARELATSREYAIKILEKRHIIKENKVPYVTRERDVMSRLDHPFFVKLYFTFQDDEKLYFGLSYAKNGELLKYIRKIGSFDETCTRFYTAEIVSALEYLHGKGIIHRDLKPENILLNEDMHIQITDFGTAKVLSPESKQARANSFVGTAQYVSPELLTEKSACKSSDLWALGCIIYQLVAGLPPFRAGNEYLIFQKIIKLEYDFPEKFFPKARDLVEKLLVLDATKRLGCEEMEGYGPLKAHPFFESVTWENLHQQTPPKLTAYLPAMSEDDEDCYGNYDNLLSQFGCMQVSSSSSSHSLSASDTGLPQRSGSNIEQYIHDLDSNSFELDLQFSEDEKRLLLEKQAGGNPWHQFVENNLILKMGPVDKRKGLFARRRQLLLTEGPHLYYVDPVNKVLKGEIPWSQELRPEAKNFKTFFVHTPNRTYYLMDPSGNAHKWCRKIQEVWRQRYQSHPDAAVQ
Experimental: as §1, §2

PHK = PHK (Oryctolagus cuniculus, UniProt P00518); details: read-out: Residual activity PHK
Experimental: as §1, §2

PKA = PKA (Homo sapiens, UniProt P17612); details: read-out: Residual activity PKA
Experimental: as §1, §2

PKB?ph = details: 10 μM compound; percentage of the activity measured in the absence of inhibitors
Experimental: as §1, §2

PKCa = PKCa (Homo sapiens, UniProt P17252); details: read-out: Residual activity PKCa
Experimental: as §1, §2

ROCK-II = ROCK-II (Homo sapiens, UniProt O75116); details: read-out: Residual activity ROCK-II
ROCK-II, sequence (O75116 whole entry, species assumed): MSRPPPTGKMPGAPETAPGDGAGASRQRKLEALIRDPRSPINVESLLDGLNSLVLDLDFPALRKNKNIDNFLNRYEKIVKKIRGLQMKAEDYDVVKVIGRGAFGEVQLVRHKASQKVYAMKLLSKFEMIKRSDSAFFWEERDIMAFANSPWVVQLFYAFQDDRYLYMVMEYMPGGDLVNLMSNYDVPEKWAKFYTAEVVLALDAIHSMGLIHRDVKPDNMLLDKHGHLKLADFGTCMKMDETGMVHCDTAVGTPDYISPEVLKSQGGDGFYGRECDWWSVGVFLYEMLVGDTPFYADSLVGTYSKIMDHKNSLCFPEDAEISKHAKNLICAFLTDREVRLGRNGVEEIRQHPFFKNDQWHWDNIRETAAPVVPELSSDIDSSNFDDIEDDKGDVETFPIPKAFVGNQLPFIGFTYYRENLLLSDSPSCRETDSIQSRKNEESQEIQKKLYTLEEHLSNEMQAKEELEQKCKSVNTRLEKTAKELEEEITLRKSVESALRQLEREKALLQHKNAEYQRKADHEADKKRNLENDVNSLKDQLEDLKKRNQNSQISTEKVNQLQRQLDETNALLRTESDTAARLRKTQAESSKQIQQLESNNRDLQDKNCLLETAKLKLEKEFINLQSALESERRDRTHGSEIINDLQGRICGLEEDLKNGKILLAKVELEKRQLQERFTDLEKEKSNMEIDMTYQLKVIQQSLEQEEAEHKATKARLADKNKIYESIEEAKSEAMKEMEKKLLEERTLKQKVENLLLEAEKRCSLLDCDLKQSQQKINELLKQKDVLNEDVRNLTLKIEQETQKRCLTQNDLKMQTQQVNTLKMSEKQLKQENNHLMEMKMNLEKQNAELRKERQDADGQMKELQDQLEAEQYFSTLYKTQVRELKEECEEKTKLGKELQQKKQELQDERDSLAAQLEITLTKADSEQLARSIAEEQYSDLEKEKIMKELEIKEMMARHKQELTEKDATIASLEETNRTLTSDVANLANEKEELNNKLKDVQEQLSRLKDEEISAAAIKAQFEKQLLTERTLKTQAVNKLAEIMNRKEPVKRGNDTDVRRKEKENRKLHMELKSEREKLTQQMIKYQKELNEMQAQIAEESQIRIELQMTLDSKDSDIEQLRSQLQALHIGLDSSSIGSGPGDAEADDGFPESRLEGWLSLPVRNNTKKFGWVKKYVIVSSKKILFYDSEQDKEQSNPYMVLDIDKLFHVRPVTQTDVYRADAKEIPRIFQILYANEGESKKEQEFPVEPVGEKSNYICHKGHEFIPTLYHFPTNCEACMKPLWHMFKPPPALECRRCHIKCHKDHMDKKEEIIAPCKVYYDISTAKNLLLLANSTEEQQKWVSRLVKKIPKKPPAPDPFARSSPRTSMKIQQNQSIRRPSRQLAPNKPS
Experimental: as §1, §2

SAPK2a/p38 = SAPK2a/p38 (Homo sapiens, UniProt Q16539); details: read-out: Residual activity SAPK2a/p38
SAPK2a/p38, sequence (Q16539 whole entry): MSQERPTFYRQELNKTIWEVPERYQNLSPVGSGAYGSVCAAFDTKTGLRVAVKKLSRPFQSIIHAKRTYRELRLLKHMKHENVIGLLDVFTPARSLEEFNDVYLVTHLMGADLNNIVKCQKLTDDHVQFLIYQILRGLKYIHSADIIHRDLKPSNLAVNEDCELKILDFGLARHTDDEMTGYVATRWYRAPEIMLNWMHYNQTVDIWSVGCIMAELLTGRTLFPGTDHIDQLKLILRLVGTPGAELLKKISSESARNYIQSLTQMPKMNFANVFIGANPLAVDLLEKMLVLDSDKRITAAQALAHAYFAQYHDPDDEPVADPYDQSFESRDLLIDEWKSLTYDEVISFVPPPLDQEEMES
Experimental: as §1, §2

SAPK4/p38d = biological target: T2, SAPK4/p38d (Homo sapiens, UniProt O15264); details: read-out: Residual activity SAPK4/p38d
T2 sequence (O15264 1-365): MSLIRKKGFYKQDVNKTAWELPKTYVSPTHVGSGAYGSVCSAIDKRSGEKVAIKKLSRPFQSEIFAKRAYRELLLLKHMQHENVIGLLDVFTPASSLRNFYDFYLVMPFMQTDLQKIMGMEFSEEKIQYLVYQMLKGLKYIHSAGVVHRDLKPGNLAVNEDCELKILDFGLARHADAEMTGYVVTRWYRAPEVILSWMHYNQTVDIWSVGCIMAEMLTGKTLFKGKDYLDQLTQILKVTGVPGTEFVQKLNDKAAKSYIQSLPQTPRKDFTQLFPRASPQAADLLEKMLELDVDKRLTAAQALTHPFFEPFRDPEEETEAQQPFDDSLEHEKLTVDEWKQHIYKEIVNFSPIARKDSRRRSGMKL
Experimental: as §1, §2

SGK = biological target: T3, SGK (Homo sapiens, UniProt O00141); details: for remaining activity at 10 µM: read-out: Residual activity SGK
T3 sequence (O00141 1-431): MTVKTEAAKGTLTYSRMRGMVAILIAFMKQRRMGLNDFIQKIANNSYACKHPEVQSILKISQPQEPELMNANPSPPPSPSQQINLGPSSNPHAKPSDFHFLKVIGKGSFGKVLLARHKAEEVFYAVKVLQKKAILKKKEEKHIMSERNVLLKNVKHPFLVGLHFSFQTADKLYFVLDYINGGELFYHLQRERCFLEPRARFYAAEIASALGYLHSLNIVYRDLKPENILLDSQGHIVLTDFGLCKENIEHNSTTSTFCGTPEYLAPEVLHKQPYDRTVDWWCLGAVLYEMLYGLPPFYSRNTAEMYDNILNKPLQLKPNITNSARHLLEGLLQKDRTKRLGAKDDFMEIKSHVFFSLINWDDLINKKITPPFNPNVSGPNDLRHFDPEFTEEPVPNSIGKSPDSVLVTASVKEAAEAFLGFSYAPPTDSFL
Experimental: as §1, §2

p70 S6K = details: 10 μM compound; percentage of the activity measured in the absence of inhibitors
Experimental: as §1, §2

[1] = 10 μM compound, percentage of the activity measured in the absence of inhibitors

In the case of `CC1=C(C2=C(C)C(=O)c3c(c(O)c(O)c(O)c3C(C)C)C2=O)C(=O)c2c(O)c(O)c(O)c(C(C)C)c2C1=O` [Compound (4), 6,7,8,6′,7′,8′-hexahydroxy-5,5′-diisopropyl-3,3′-dimethyl-[2.2′]binaphthalenyl-1,4,1′,4′-tetraone], the “Residual activity AMPK” value (AMPK) is reported as 61%, the remaining activity at 10 µM (CDK2/cyclin A) is reported as 113% and the “Residual activity CK1” value (CK1) is reported as 88%. It also gave a remaining activity at 10 µM (CK2) of 80%, a remaining activity at 10 µM (GSK3b) of 63% and a remaining activity at 10 µM (JNK/SAPK1c) of 105%. It also gave a remaining activity at 10 µM (MKK1) of 59%, a remaining activity at 10 µM (PDK1) of 88% and a remaining activity at 10 µM (PHK) of 47%. For the same compound, the remaining activity at 10 µM (PKA) was 69%, the “Residual activity PKB?ph” value (PKB?ph) was 39% and the remaining activity at 10 µM (PKCa) was 85%. It also gave a remaining activity at 10 µM (ROCK-II) of 75%, a remaining activity at 10 µM (SAPK2a/p38) of 105% and a remaining activity at 10 µM (SAPK4/p38d) of 88%. The “Reduction of the activity of SGK” value (SGK; 10 μM compound) was 96%, the remaining activity at 10 µM (SGK) was 4% and the “Residual activity p70 S6K” value (p70 S6K) was 34%.
In the case of `CC1=C(C2=C(C)C(=O)c3c(c(CSCCO)c(O)c(O)c3C(C)C)C2=O)C(=O)c2c(CSCCO)c(O)c(O)c(C(C)C)c2C1=O` [Compound (14), 6,7,6′,7′-tetrahydroxy-8,8′-bis-(2-hydroxy-ethylsulphanylmethyl)-5,5′-diisopropyl-3,3′-dimethyl-[2,2′]binaphthalenyl-1,4,1′,4′-tetraone], the “Residual activity AMPK” value (AMPK) is reported as 70%, the remaining activity at 10 µM (CDK2/cyclin A; [1]) is reported as 111% and the “Residual activity CK1” value (CK1) is reported as 77%. For the same compound, the remaining activity at 10 µM (CK2; [1]) was 85%, the remaining activity at 10 µM (GSK3b; [1]) was 85% and the remaining activity at 10 µM (JNK/SAPK1c; [1]) was 88%. The remaining activity at 10 µM (MKK1; [1]) was 90%, the remaining activity at 10 µM (PDK1; [1]) was 65% and the remaining activity at 10 µM (PHK; [1]) was 27%. The remaining activity at 10 µM (PKA; [1]) was 59%, the “Residual activity PKB?ph” value (PKB?ph) was 76% and the remaining activity at 10 µM (PKCa; [1]) was 86%. The remaining activity at 10 µM (ROCK-II; [1]) was 73%, the remaining activity at 10 µM (SAPK2a/p38; [1]) was 102% and the remaining activity at 10 µM (SAPK4/p38d; [1]) was 85%. For the same compound, the “Reduction of the activity of SGK” value (SGK; 10 μM compound) was 93%, the remaining activity at 10 µM (SGK; [1]) was 7% and the “Residual activity p70 S6K” value (p70 S6K) was 52%.
For `Cc1cc2c(C(C)C)c(O)c(O)c(C=O)c2c(O)c1-c1c(C)cc2c(C(C)C)c(O)c(O)c(C=O)c2c1O` [Gossypol, gossypol], the “Residual activity AMPK” value (AMPK) was 72%, the remaining activity at 10 µM (CDK2/cyclin A) was 97% and the “Residual activity CK1” value (CK1) was 89%. For the same compound, the remaining activity at 10 µM (CK2) was 80%, the remaining activity at 10 µM (GSK3b) was 47% and the remaining activity at 10 µM (JNK/SAPK1c) was 90%. The remaining activity at 10 µM (MKK1) was 86%, the remaining activity at 10 µM (PDK1) was 71% and the remaining activity at 10 µM (PHK) was 23%. The remaining activity at 10 µM (PKA) was 47%, the “Residual activity PKB?ph” value (PKB?ph) was 94% and the remaining activity at 10 µM (PKCa) was 96%. For the same compound, the remaining activity at 10 µM (ROCK-II) was 80%, the remaining activity at 10 µM (SAPK2a/p38) was 99% and the remaining activity at 10 µM (SAPK4/p38d) was 66%. The remaining activity at 10 µM (SGK) was 14% and the “Residual activity p70 S6K” value (p70 S6K) was 110%.
`CC1=C(C2=C(C)C(=O)c3c(c(C=O)c(O)c(O)c3C(C)C)C2=O)C(=O)c2c(C=O)c(O)c(O)c(C(C)C)c2C1=O` [Gossypolone, gossypolone, reference compound] was tested, and the “Residual activity AMPK” value (AMPK) was 66%, the remaining activity at 10 µM (CDK2/cyclin A) was 90% and the “Residual activity CK1” value (CK1) was 64%. The remaining activity at 10 µM (CK2) was 79%, the remaining activity at 10 µM (GSK3b) was 43% and the remaining activity at 10 µM (JNK/SAPK1c) was 86%. It also gave a remaining activity at 10 µM (MKK1) of 76%, a remaining activity at 10 µM (PDK1) of 51% and a remaining activity at 10 µM (PHK) of 21%. For the same compound, the remaining activity at 10 µM (PKA) was 69%, the “Residual activity PKB?ph” value (PKB?ph) was 53% and the remaining activity at 10 µM (PKCa) was 78%. For the same compound, the remaining activity at 10 µM (ROCK-II) was 54%, the remaining activity at 10 µM (SAPK2a/p38) was 108% and the remaining activity at 10 µM (SAPK4/p38d) was 75%. The remaining activity at 10 µM (SGK) was 3% and the “Residual activity p70 S6K” value (p70 S6K) was 35%.
